Assay type in all cases: binding
Holding throughout (settings): compound 1 uM

The target of experiment [1] is various enzymes (Homo sapiens, UniProt Q9BXA7). The protocol:
(§1) Ambit profiling was conducted in accordance with the manufacturer's instructions.

In experiment [2] the target is various enzymes (Homo sapiens, UniProt P37023). The protocol:
as §1

Experiment [3] deals with various enzymes (Homo sapiens, UniProt Q13131). The protocol: as §1
Experiment [4] deals with various enzymes (Homo sapiens, UniProt Q9BVS4). The protocol: as §1
Experiment [5] concerns the target various enzymes (Homo sapiens, UniProt P36507). The protocol: as §1
Experiment [6] deals with various enzymes (Homo sapiens, UniProt Q99755). The protocol:
as §1

The target in experiment [7] is T1, various enzymes (Homo sapiens, UniProt O43283).
T1 sequence (O43283 1-966): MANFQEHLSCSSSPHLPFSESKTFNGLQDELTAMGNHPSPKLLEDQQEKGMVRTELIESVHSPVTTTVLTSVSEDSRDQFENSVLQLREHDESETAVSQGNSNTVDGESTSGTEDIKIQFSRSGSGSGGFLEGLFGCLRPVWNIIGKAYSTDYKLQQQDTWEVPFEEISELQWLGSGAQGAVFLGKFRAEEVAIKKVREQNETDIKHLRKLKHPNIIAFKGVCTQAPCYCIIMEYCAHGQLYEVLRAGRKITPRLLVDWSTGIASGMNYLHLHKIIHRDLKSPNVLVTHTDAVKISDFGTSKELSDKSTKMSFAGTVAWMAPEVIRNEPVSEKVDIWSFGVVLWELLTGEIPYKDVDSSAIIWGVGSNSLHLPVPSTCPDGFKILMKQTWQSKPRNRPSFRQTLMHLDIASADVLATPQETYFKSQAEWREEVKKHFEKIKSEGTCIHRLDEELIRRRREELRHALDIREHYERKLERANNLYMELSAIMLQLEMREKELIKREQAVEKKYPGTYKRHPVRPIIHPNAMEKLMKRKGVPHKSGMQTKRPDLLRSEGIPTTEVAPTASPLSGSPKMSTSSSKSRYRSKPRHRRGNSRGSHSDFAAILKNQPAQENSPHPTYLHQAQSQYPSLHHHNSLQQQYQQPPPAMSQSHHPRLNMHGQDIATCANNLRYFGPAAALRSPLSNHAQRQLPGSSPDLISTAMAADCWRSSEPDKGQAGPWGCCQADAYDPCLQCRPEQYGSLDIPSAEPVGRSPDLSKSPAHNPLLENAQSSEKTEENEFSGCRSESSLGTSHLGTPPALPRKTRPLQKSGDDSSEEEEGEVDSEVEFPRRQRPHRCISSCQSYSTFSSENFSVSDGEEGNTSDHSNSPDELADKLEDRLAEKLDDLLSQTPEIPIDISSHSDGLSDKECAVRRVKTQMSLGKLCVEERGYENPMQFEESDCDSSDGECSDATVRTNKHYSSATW
The protocol:
as §1

In experiment [8] the target is various enzymes (Homo sapiens, UniProt P49760). The protocol:
as §1

For experiment [9], the target named is various enzymes (Homo sapiens, UniProt O94768). The protocol:
as §1

The target of experiment [10] is various enzymes (Homo sapiens, UniProt P36894). The protocol: as §1
In experiment [11] the target is various enzymes (Homo sapiens, UniProt Q16816). The protocol:
as §1

The target of experiment [12] is various enzymes (Homo sapiens, UniProt Q15569). The protocol:
as §1

Experiment [13] addresses various enzymes (Homo sapiens, UniProt P45984). The protocol: as §1
The target of experiment [14] is T2, various enzymes (Homo sapiens, UniProt P29323).
T2 sequence (P29323 19-1055): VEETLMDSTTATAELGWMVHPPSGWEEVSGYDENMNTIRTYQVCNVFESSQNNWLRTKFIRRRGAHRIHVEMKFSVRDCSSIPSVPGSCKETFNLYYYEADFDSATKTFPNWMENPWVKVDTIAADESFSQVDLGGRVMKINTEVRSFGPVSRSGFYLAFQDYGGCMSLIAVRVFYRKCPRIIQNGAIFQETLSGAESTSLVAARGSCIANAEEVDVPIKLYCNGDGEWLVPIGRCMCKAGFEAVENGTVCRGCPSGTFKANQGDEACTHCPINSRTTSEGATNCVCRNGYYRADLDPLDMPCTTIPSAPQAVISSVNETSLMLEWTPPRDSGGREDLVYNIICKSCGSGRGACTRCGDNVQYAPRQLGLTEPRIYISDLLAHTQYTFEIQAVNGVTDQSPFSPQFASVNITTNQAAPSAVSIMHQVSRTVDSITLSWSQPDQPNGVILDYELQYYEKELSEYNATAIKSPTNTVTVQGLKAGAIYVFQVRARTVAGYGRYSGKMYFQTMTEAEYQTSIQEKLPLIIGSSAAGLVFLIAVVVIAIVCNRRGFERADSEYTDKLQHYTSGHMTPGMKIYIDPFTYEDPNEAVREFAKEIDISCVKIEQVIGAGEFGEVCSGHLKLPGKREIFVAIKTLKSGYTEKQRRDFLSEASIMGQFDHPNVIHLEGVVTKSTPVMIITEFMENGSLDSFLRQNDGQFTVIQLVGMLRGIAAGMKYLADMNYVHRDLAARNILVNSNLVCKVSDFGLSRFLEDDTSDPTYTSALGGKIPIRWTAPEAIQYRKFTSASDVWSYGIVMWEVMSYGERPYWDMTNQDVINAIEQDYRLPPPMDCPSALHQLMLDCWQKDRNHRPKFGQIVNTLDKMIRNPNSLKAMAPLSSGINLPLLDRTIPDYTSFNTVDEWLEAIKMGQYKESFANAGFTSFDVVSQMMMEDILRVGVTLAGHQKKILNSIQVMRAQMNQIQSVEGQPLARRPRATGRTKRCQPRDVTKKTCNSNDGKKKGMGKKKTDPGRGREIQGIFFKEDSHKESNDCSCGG
The protocol:
as §1

Experiment [15] has as its target various enzymes (Homo sapiens, UniProt O94921). The protocol: as §1
The target in experiment [16] is various enzymes (Homo sapiens, UniProt P00533, DEL752-759). The protocol:
as §1

Experiment [17] has as its target various enzymes (Homo sapiens, UniProt P22694). The protocol: as §1
Experiment [18] concerns the target various enzymes (Homo sapiens, UniProt Q16659). The protocol: as §1

Chain of various enzymes (Homo sapiens, UniProt O94921) (O94921 whole entry): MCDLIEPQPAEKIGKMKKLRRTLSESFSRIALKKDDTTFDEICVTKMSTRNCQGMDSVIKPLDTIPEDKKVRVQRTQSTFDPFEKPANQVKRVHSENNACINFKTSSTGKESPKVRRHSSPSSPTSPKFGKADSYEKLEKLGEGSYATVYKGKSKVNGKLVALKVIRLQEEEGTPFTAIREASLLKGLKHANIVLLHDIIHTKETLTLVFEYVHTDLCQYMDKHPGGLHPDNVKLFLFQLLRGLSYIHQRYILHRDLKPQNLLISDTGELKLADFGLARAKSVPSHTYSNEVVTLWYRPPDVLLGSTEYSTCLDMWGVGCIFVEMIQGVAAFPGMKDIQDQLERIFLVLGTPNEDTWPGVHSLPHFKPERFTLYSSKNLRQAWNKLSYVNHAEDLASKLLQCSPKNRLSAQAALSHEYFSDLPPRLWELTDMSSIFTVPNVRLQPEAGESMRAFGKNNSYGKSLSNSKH
Chain of various enzymes (Homo sapiens, UniProt P37023) (P37023 22-503): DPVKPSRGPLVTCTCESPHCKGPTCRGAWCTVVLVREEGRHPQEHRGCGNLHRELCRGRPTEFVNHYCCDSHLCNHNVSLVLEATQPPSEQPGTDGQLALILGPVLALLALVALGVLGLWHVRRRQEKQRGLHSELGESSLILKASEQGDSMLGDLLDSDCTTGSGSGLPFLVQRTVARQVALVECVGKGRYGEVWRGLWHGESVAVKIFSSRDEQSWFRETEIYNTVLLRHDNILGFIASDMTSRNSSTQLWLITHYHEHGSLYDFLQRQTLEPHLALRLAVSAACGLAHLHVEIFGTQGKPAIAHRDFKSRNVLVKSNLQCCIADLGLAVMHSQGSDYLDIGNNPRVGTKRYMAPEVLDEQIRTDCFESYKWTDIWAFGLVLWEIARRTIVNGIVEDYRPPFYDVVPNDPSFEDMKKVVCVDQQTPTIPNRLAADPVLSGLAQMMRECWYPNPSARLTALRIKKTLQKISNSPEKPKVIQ
Chain of various enzymes (Homo sapiens, UniProt P36507) (P36507 whole entry): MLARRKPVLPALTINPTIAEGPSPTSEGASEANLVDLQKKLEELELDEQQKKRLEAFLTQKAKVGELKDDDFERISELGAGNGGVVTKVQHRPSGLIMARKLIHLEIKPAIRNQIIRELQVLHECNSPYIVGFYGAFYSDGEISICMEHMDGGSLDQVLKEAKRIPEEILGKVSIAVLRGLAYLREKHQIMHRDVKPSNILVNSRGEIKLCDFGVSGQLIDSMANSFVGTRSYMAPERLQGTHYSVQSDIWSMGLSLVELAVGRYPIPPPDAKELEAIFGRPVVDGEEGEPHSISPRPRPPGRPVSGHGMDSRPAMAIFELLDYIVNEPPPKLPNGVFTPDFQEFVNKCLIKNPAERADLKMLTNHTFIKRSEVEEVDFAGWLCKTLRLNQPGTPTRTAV
Chain of various enzymes (Homo sapiens, UniProt Q16816) (Q16816 whole entry): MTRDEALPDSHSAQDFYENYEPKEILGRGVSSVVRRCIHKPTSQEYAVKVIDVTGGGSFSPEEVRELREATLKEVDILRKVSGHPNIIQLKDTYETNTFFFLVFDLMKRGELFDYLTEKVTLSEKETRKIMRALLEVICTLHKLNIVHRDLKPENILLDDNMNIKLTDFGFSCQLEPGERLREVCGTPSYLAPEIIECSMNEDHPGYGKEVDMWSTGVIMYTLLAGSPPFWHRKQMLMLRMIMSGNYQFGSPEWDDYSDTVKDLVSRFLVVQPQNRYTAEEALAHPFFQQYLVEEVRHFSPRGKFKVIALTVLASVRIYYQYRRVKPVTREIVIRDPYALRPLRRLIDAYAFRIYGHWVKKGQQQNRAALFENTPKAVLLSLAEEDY
Chain of various enzymes (Homo sapiens, UniProt P45984) (P45984 whole entry): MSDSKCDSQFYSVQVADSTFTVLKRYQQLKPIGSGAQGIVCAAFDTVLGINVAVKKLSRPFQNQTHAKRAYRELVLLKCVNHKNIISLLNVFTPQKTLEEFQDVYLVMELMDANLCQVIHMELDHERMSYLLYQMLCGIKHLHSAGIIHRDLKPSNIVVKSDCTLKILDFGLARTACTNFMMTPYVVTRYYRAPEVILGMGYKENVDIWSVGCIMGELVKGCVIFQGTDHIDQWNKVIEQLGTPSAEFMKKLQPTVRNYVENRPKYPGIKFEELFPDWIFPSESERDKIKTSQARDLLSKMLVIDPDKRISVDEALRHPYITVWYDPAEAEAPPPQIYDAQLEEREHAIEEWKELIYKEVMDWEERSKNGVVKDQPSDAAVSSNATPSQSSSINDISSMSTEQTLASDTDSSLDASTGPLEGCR
Chain of various enzymes (Homo sapiens, UniProt Q9BVS4) (Q9BVS4 whole entry): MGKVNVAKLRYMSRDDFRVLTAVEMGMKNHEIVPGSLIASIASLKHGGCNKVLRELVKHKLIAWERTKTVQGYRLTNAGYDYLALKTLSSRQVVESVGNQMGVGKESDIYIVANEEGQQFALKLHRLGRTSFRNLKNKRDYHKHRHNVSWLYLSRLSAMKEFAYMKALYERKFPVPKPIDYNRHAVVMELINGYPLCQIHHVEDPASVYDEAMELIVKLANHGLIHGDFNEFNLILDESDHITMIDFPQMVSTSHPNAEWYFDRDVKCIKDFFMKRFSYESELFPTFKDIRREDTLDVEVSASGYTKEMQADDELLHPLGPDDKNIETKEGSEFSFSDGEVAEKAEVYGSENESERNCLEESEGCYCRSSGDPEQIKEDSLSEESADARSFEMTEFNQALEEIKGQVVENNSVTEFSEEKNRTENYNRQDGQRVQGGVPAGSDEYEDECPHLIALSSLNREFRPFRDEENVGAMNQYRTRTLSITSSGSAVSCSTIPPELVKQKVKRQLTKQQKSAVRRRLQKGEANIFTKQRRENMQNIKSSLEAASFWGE
Chain of various enzymes (Homo sapiens, UniProt O94768) (O94768 whole entry): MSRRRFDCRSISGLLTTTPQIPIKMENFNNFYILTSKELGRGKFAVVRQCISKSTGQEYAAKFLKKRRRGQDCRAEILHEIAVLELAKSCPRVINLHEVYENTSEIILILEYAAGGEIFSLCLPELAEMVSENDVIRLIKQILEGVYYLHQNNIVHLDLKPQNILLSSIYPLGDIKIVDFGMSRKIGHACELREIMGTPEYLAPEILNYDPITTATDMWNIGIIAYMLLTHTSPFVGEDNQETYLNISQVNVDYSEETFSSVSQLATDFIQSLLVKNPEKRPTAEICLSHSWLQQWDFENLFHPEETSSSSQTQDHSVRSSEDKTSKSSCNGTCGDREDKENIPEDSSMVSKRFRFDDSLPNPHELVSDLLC
Chain of various enzymes (Homo sapiens, UniProt Q99755) (Q99755 whole entry): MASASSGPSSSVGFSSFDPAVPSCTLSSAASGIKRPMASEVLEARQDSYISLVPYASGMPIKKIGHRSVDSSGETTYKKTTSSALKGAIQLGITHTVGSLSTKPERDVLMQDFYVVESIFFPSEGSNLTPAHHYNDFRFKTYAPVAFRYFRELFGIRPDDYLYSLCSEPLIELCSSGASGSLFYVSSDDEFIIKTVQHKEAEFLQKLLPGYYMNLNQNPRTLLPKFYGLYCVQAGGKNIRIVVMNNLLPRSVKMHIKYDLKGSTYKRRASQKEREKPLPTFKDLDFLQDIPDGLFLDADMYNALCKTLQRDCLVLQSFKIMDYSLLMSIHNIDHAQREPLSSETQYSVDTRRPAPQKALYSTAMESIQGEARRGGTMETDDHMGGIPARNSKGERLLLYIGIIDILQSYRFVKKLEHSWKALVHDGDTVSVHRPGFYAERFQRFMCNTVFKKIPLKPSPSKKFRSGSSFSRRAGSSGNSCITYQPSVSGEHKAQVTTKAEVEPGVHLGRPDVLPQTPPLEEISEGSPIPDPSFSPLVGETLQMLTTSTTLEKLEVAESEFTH
Chain of various enzymes (Homo sapiens, UniProt Q13131) (Q13131 whole entry): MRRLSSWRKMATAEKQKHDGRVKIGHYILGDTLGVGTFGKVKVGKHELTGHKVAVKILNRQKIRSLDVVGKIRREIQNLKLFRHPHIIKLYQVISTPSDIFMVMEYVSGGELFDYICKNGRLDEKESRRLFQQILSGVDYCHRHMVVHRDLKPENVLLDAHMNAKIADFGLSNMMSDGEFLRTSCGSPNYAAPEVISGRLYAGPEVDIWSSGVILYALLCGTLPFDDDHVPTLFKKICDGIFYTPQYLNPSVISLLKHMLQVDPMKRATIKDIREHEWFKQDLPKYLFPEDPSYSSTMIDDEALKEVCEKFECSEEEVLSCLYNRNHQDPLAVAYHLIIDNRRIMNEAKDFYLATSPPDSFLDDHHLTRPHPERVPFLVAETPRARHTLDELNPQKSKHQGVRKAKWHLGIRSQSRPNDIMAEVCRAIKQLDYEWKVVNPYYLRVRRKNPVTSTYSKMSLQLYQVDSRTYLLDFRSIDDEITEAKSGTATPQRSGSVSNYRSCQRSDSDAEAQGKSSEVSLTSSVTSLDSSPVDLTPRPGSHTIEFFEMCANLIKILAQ
Chain of various enzymes (Homo sapiens, UniProt Q15569) (Q15569 whole entry): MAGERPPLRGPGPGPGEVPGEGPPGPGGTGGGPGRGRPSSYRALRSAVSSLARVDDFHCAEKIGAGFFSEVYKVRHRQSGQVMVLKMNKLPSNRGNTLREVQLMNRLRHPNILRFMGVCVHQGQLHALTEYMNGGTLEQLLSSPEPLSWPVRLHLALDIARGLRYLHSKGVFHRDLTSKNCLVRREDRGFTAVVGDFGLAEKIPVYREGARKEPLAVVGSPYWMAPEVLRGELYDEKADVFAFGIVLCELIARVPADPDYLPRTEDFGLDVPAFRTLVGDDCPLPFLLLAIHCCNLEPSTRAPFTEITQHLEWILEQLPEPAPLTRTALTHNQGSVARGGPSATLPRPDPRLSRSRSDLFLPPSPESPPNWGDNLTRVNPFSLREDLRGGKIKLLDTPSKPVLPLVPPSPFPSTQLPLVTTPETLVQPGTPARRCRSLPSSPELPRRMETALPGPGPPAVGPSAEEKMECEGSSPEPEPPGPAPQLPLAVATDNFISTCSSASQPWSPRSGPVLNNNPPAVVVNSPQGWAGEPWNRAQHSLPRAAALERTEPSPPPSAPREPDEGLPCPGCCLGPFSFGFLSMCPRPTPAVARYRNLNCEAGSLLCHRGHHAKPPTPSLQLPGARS

Consider `CC(C)N1Cc2nn(C)cc2-c2cnc3[nH]cc(c3c2)-c2cn(nc2C(F)(F)F)CCCC1=O` [Compound 45, (Z)-5-isopropyl-31-methyl-13-(trifluoromethyl)-11H,21H,31H-5-aza-2(3,5)-pyrrolo[2,3-b]pyridina-1(4,1),3(4,3)-dipyrazolacyclononaphan-6-one], for which the “Ambit profiling: TSSK1B” value on various enzymes [1] worked out at 83. Besides, the “Ambit profiling: ACVRL1” value on various enzymes [2] worked out at 36. In addition, on various enzymes [3], the “Ambit profiling: AMPK-alpha1” value was 50. For the same compound, on various enzymes [4], the “Ambit profiling: RIOK2” value is listed as 74. Further, at various enzymes [5], the “Ambit profiling: MEK2” value is listed as 12. Moreover, at various enzymes [6], the “Ambit profiling: PIP5K1A” value is recorded as 27. Further, the “Ambit profiling: LZK” value on various enzymes [7] amounted to 42. For the same compound, the “Ambit profiling: CLK2” value on various enzymes [8] was determined as 4.3. Besides, the “Ambit profiling: DRAK2” value on various enzymes [9] is 100. Also, the “Ambit profiling: BMPR1A” value on various enzymes [10] came out at 97. The “Ambit profiling: PHKG1” value on various enzymes [11] is on record as 34. Moreover, at various enzymes [12], the “Ambit profiling: TESK1” value came to 99. The “Ambit profiling: JNK2” value on various enzymes [13] amounted to 21. Further, the “Ambit profiling: EPHB2” value at various enzymes [14] is 77. The “Ambit profiling: PFTK1” value on various enzymes [15] came out at 14. In addition, at various enzymes [16], the “Ambit profiling: EGFR(S752-I759del)” value came to 66. Moreover, the “Ambit profiling: PKAC-beta” value at various enzymes [17] is on record as 54. Moreover, at various enzymes [18], the “Ambit profiling: ERK3” value is 100.

Take `COc1c2c(nn1C)CN(C(C)C)C(=O)CCCn1cc(c(C(F)(F)F)n1)-c1c[nH]c3ncc-2cc13` [Compound 50, (Z)-5-isopropyl-35-methoxy-31-methyl-13-(trifluoromethyl)-11H,21H,31H-5-aza-2(3,5)-pyrrolo[2,3-b]pyridina-1(4,1),3(4,3)-dipyrazolacyclononaphan-6-one]: the “Ambit profiling: TSSK1B” value at various enzymes [1] was 43. Also, on various enzymes [2], the “Ambit profiling: ACVRL1” value came to 67. Also, the “Ambit profiling: AMPK-alpha1” value at various enzymes [3] worked out at 90. Also, the “Ambit profiling: RIOK2” value on various enzymes [4] came to 64. On various enzymes [5], the “Ambit profiling: MEK2” value was 11. Further, the “Ambit profiling: PIP5K1A” value at various enzymes [6] is recorded as 19. Also, on various enzymes [7], the “Ambit profiling: LZK” value came out at 68. Further, at various enzymes [8], the “Ambit profiling: CLK2” value turned out to be 11. Further, the “Ambit profiling: DRAK2” value at various enzymes [9] is listed as 98. On various enzymes [10], the “Ambit profiling: BMPR1A” value was determined as 88. The “Ambit profiling: PHKG1” value at various enzymes [11] came out at 34. In addition, the “Ambit profiling: TESK1” value on various enzymes [12] was determined as 69. In addition, the “Ambit profiling: JNK2” value on various enzymes [13] was found to be 7.5. Besides, the “Ambit profiling: EPHB2” value at various enzymes [14] was 55. On various enzymes [15], the “Ambit profiling: PFTK1” value stood at 60. For the same compound, the “Ambit profiling: EGFR(S752-I759del)” value on various enzymes [16] is reported as 48. Further, the “Ambit profiling: PKAC-beta” value at various enzymes [17] is 45. In addition, the “Ambit profiling: ERK3” value at various enzymes [18] is listed as 69.

For the origin of these results see US12157741B2, “Macrocyclic inhibitors of DYRK1A” (DANA-FARBER CANCER INSTITUTE, INC., priority 2018, dated 2024).
